How the values were obtained:
[1] = test system: TSST-1 production by S. aureus FRI-1187; type: cell-based, Staphylococcus aureus
[2] = test system: TSST-1 production by S. aureus FRI-1169; type: cell-based, Staphylococcus aureus

Oc1cc(Cl)ccc1Oc1ccc(Cl)cc1Cl [Triclosan, triclosan]
TSST-1 production compared to the control [1]: produced less TSST-1
TSST-1 production compared to the control [2]: produced less TSST-1

Reference: US7323186B2 (priority 2001, dated 2008)
